From patent EP4578861A1, “NOVEL TRICYCLIC HETEROCYCLIC CARBALDEHYDE COMPOUND AND PHARMACEUTICAL COMPOSITION, CONTAINING SAME, FOR IRE1ALPHA INHIBITION” (Hanmi Pharm. Co., Ltd., priority 2022, dated 2024)

System: spliced XBP1
Experiment: Spliced XBP1 mRNA measurement test (RT-PCR, tunicamycin-induced ER stress in MCF-7 cells)
Type: cell-based
Conditions: compound pre-treated for 1 hour, then 2 µg/mL tunicamycin for 6 or 24 hours, spliced XBP1 corrected by total XBP1
Method: With respect to these synthetic compounds, reverse transcription polymerase chain reaction (RT-PCR) experiments were conducted on MCF-7 cancer cells to confirm the effect thereof on the mRNA and protein amounts of spliced XBP1, which is the target of IRE endonuclease. A reverse transcription polymerase chain reaction is a test method in which RNA is extracted from cells, reverse transcriptase is used to make cDNA, and relative mRNA expression level is measured through a polymerase chain reaction.
Briefly, MCF-7 cells were seeded in a 12-well plate and cultured in an incubator including 5% CO2 for one day. On the next day, compounds, which were 10-fold serially diluted from 10,000 nM, were pre-treated for 1 hour, and then, treated with 2 µg/mL tunicamycin for 6 or 24 hours to induce endoplasmic reticulum stress, followed by cell lysis to obtain RNA. RNA was subjected to the procedure of RNeasy Kits (Qiagen, 74106), and 5 µg of RNA sample was dissolved in a sample including reverse transcriptase and dNTP, and reverse transcription reaction was performed with a thermal cycler. The amount of mRNA of each of spliced XBP1 and total XBP1 was measured by a polymerase chain reaction through real time PCR by mixing each cDNA sample with a PCR reaction mixture including a primer pair capable of binding specifically to each target and SYBR green dye. The expression level of spliced XBP1 was corrected by the total expression level of XBP1, and the relative expression levels of spliced XBP1 between samples were compared and analyzed.

IC50: < 100 nM
SMILES: COc1cc2c(C)c(CC(=O)N3CCOCC3)c(=O)oc2c(C=O)c1O [MKC8866, reference compound]
